For data set [1] the following is noted: cited from earlier work; for solubilization in water: 15 mg/mL hydroxypropyl-β-cyclodextrin (Uekama et al).
For data set [2] the following is noted: dog, in vivo.
For data set [3] the following is noted: with water-soluble β-cyclodextrin epichlorohydrin polymer; cited from earlier work.
The conditions of data set [4]: in vivo; cited from earlier work.
In data set [5] the test system is generalized tonic-clonic seizures. The settings on record: human, in vivo; cited from earlier work.
Data set [6] has as its system maximal electroshock seizure (MES) test models. The settings on record: in vivo; cited from earlier work.
The conditions of data set [7]: cited from earlier work; for Absolute bioavailability: 100 mg 2% oral suspension vs intravenous infusion (Gerardin et al).
For data set [8] the following is noted: cited from earlier work.
Where [9] appears, read: healthy human subjects (Neuvonen et al).

Where two headings read alike, the source gives them in different places.

For `C[C@H]1O[C@@H](O[C@H]2[C@@H](O)C[C@H](O[C@H]3[C@@H](O)C[C@H](O[C@H]4CC[C@@]5(C)[C@H](CC[C@@H]6[C@@H]5C[C@@H](O)[C@]5(C)[C@@H](C7=CC(=O)OC7)CC[C@]65O)C4)O[C@@H]3C)O[C@@H]2C)C[C@H](O)[C@@H]1O` [digoxin], the solubilization in water result in data set [1] is recorded as “improved solubilization”.

As for `C[C@]12CC[C@H]3[C@@H](CCC4=CC(=O)CC[C@@]43C)[C@@H]1CC[C@@H]2O` [testosterone], the solubilization in water result in data set [1] is recorded as “improved solubilization”.

For `CCCCCCNC(=O)n1cc(F)c(=O)[nH]c1=O` [carmofur], the solubilization in water result in data set [1] is recorded as “improved solubilization”.

As for `CC(C(=O)O)c1ccc(-c2ccccc2)c(F)c1` (stereo not shown) [flurbiprofen], the solubilization in water entry in data set [1] is on record as “improved solubilization”.

On to `NC(=O)N1c2ccccc2C=Cc2ccccc21` [TEGRETOL], for which, in data set [2], the “coefficient of variation around the AUC” value stood at 78% and the “coefficient of variation of Cmax” value is given as 71%.

As for `COc1ccc2c(c1)c(CC(=O)O)c(C)n2C(=O)c1ccc(Cl)cc1` [indomethacin], the solubilization in water entry in data set [1] was “improved solubilization”.

Turning to `O=C1NC(=O)C(c2ccccc2)(c2ccccc2)N1` [phenytoin], in data set [3], the dissolution and absorption result is on record as “Improvements”. Further, the solubilization in water result in data set [1] was “improved solubilization”.

For the molecule `C[C@]12C=CC(=O)C=C1CC[C@@H]1[C@@H]2[C@@H](O)C[C@@]2(C)[C@H]1CC[C@]2(O)C(=O)CO` [prednisolone], the solubilization in water entry in data set [1] is listed as “improved solubilization”.

In the case of `OC[C@H]1O[C@@H]2O[C@H]3[C@H](O)[C@@H](O)[C@@H](O[C@H]4[C@H](O)[C@@H](O)[C@@H](O[C@H]5[C@H](O)[C@@H](O)[C@@H](O[C@H]6[C@H](O)[C@@H](O)[C@@H](O[C@H]7[C@H](O)[C@@H](O)[C@@H](O[C@H]8[C@H](O)[C@@H](O)[C@@H](O[C@H]1[C@H](O)[C@H]2O)O[C@@H]8CO)O[C@@H]7CO)O[C@@H]6CO)O[C@@H]5CO)O[C@@H]4CO)O[C@@H]3CO` [β-cyclodextrin], the nephrotoxicity result in data set [4] is listed as “nephrotoxicity”. Further, the aqueous solubility entry in data set [1] (25° C.) was “about 1.8 % w/v”.

On to `NC(=O)N1c2ccccc2C=Cc2ccccc21` [carbamazepine, 5H-dibenz[b,f]azepine-5-carboxamide], for which the “efficacy in generalized tonic-clonic seizures (grand mal)” value in data set [5] is “proven efficacy”. Besides, the “effectiveness in MES test models” value in data set [6] is reported as “effective”. For the same molecule, the “total bioavailability (area under the curve)” value in data set [7] (Australian tablets 1977 vs since 1980 (Eadie et al)) is listed as “no significant difference in total bioavailability”. Further, in data set [7] (Goodman and Gilman), the “oral absorption, adequacy” value is “adequate”. The “plasma levels, 200 or 400 mg tablets” value in data set [7] (epileptic patients (Monaco et al)) is recorded as “no difference in plasma levels”. In data set [7] (setting [9]), the “absorption, rectal versus oral” value is reported as “significantly slower” and the “total bioavailability, rectal versus oral” value was “similar”. For the same molecule, the “bioavailability from the oral suspension versus intravenous” value in data set [7] (healthy male volunteers (Gerardin et al)) is reported as “equivalent”. The oral absorption result in data set [7] (rate/regularity, in words) was “slow and somewhat erratic”. In data set [7] (subject 1), the Absolute bioavailability was 102.3%. For the same molecule, the Absolute bioavailability in data set [7] (subject 2) is reported as 100.1%. For the same molecule, in data set [8] (effects associated with phenytoin), the “gingival hypertropy, hirsutism, acne” value was “does not precipitate”. For the same molecule, in data set [8] (human, in vivo), the Therapeutic plasma levels is 4 to 10 µg/mL; the “level at which diplopia, dizziness, drowsiness and ataxia occur” value is “above 6 μg/mL”; the sedation entry is “less sedating”; the “serum level at which nystagmus may occur” value was “below the therapeutic range”. Moreover, in data set [1] (no cyclodextrin), the “water solubility of carbamazepine” value is given as “extremely poor water solubility”.

For `CC(=O)[C@H]1CC[C@H]2[C@@H]3CCC4=CC(=O)CC[C@]4(C)[C@H]3CC[C@]12C` [progesterone], the solubilization in water result in data set [1] is recorded as “improved solubilization”.

With `OC[C@H]1O[C@@H]2O[C@H]3[C@H](O)[C@@H](O)[C@@H](O[C@H]4[C@H](O)[C@@H](O)[C@@H](O[C@H]5[C@H](O)[C@@H](O)[C@@H](O[C@H]6[C@H](O)[C@@H](O)[C@@H](O[C@H]7[C@H](O)[C@@H](O)[C@@H](O[C@H]8[C@H](O)[C@@H](O)[C@@H](O[C@H]9[C@H](O)[C@@H](O)[C@@H](O[C@H]1[C@H](O)[C@H]2O)O[C@@H]9CO)O[C@@H]8CO)O[C@@H]7CO)O[C@@H]6CO)O[C@@H]5CO)O[C@@H]4CO)O[C@@H]3CO` [γ-cyclodextrin], the “effect on the water solubility of carbamazepine” value in data set [1] (Brewster et al) is “significantly enhance”.
